One compound from patent publication US9815863B2, “Hydrogen bond forming fluoro ketolides for treating diseases” (priority 2010, dated 2017) can be followed below.

≈ marks a conversion by molar mass, not a printed value.

Assay [1] has as its system Streptococcus pneumoniae Pen^S, Tel^S, Mac^S. The assay is described as follows: MIC against streptococci clinical isolates (Table 3). Format: cell-based. The following applies: Streptococcus pneumoniae, 10 strains.
Another assay relates to E. coli ribosome. Briefly: Competition binding with [14C]erythromycin, E. coli ribosome. The method, then: (§1) Competition binding studies. Binding of erythromycin to E. coli and S. aureus ribosomes and competition experiments were done by size-exclusion chromatography using Bio-Gel P30 spin columns as described in Xiong, L., Y. Korkhin, and A. S. Mankin. 2005. Binding site of the bridged macrolides in the Escherichia coli ribosome. Antimicrob. Agents Chemother. 49:281-288.
(§2) For competition binding experiments, ribosomes (100 nM) were preincubated with 100 nM [^14C]erythromycin (48.8 mCi/mmol; PerkinElmer) in 160 μL of buffer A at 37° C. for 15 min, then at 20° C. for 10 min. Competing antibiotics were added at varying concentrations, and the binding mixture was incubated at 20° C. for 100 min. The reactions were loaded onto the spin columns and the amount of ribosome-associated radioactivity was measured as described above. Binding data were analyzed using Prism software (GraphPad). Cell free transcription-translation assays.

Assay [2] concerns eukaryotic ribosome (rabbit reticulocyte lysate). The assay is described as follows: Rabbit reticulocyte cell-free translation system, luciferase synthesis. The settings on record: concentrations up to 50 μM. The class given is biochemical. As for the experimental part: The rabbit reticulocyte cell-free translation system (Promega, Cat. No. L4540) was used to assay the effect of the drugs on activity of the eukaryotic ribosome. […] Polyadenylated luciferase mRNA (Promega, Cat. No. L4561) was denatured before use by incubating the RNA at 65° C. for 3 min and then placed on ice. Translation mix (2 μL) was mixed with the rabbit reticulocyte lysate to start the reaction. The translation mix contained 0.3 μL of denatured luciferase mRNA (0.3 μg), 0.2 μL of 1 mM amino acid mixture, 0.2 μL of ribonuclease inhibitor (8U, Roche, Cat. No. 03 335 399001), 0.4 μL of 2.5 M potassium chloride, and 0.9 μL of water. Reactions were incubated at 30° C. for 30 min and then placed on ice.

Assay [3] has as its system Streptococcus pyogenes Tel^S, Mac^S. The assay is described as follows: MIC against streptococci clinical isolates (Table 3). The following applies: Streptococcus pyogenes, 10 strains. Format: cell-based.
The test system of assay [4] is 2058-dimethylated ribosomes isolated from the S. aureus N315 strain. The assay is described as follows: RNA footprinting of A2058-dimethylated (Erm-modified) ribosomes from S. aureus N315. The class given is binding. The settings on record: S. aureus N315 ribosomes dimethylated at A2058, drugs at 100 μM. The method, then: Ribosome chemical probing. rRNA probing was done following standard protocols (Merryman, C., and H. F. Noller. 1998. Footprinting and modification-interference analysis of binding sites on RNA, p. 237-253. In C. W. J. Smith (ed.), RNA:Protein Interactions, A Practical Approach. Oxford University Press, Oxford), with minor modifications. Briefly, 200 nM ribosomes were incubated with 100 μM antibiotic in 50 μL of buffer B (80 mM HEPES-KOH [pH 7.8], 20 mM MgCl2, 100 mM NH4Cl, 1.5 mM dithiothreitol) for 10 min at 37° C., followed by 10 min at 20° C. Modifying reagents (dimethyl sulfate [DMS], kethoxal, or 1-cyclohexyl-3-(2-morpholinoethyl)carbodiimide metho p-toluene sulfonate [CMCT]) were added and the modification reaction was carried out for 10 min at 37° C. After quenching the reaction and ethanol precipitation, rRNA was extracted and the distribution of modified nucleotides was assessed by primer extension.
Interaction of CEM-101 with S. aureus ribosomes dimethylated at A2058 by Erm-methyltransferase. Erm-methyltransferase modifies A2058 in 23S rRNA by consecutively adding two methyl groups to the exocyclic amino group of the adenine base. Such modification completely blocks binding of erythromycin and similar macrolides, whereas its effect on binding of ketolides is less clear (Douthwaite, S., L. H. Hansen, and P. Mauvais. 2000. Macrolide-ketolide inhibition of MLS-resistant ribosomes is improved by alternative drug interaction with domain R of 23S rRNA. Mol. Microbiol. 36:183-193; Liu, M., and S. Douthwaite. 2002. Activity of the ketolide telithromycin is refractory to Erm monomethylation of bacterial rRNA. Antimicrob. Agents Chemother. 46:1629-1633). Therefore, interaction of CEM-101 with the ribosomes isolated from a clinical S. aureus strain N315, which carries five chromosomal copies of constitutively expressed ermA gene present in the Tn554 transposon (Kuroda, M., T. Ohta, I. Uchiyama, T. Baba, H. Yuzawa, I. Kobayashi, L. Cui, A. Oguchi, K. Aoki, Y. Nagai, J. Lian, T. Ito, M. Kanamori, H. Matsumaru, A. Maruyama, H. Murakami, A. Hosoyama, Y. Mizutani-Ui, N. K. Takahashi, T. Sawano, R. Inoue, C. Kaito, K. Sekimizu, H. Hirakawa, S. Kuhara, S. Goto, J. Yabuzaki, M. Kanehisa, A. Yamashita, K. Oshima, K. Furuya, C. Yoshino, T. Shiba, M. Hattori, N. Ogasawara, H. Hayashi, and K. Hiramatsu. 2001. Whole genome sequencing of meticillin-resistant Staphylococcus aureacs. Lancet 357:1225-1240) was investigated.
Footprinting analysis was used to test interactions of ketolides (CEM-101 and telithromycin) and cladinose-containing macrolides (CEM-103 and erythromycin) with the 2058-dimethylated ribosomes isolated from the S. aureus N315 strain. Ribosomes were incubated with the drugs (present at 100 μM concentration) and probed by DMS modification. Because dimethylated A2058 blocks progression of reverse transcriptase along the RNA template, a strong reverse transcriptase stop is observed at A2058 on the primer extension gel (Vester, B., and S. Douthwaite. 1994. Domain V of 23S rRNA contains all the structural elements necessary for recognition by the ErmE methyltransferase. J. Bacteriol. 176:6999-7004; Zhong, P., Z. Cao, R. Hammond, Y. Chen, J. Beyer, V. D. Shortridge, L. Y. Phan, S. Pratt, J. Capobianco, K. A. Reich, R. K. Flamm, Y. S. Or, and L. Katz. 1999. Induction of ribosome methylation in MLS-resistant Streptococcus pneumoniae by macrolides and ketolides. Microb. Drug Resist. 5:183-188). Therefore, it is impossible to use footprinting to evaluate interactions of macrolides with this position in the S. aureus N315 ribosomes. […]

The next assay concerns the target S. aureus ribosome. The assay is described as follows: Competition binding with [14C]erythromycin, S. aureus ribosome. As for the experimental part:
as §1, §2

Assay [5] concerns Streptococcus pyogenes Tel^R, Mac^R. The assay is described as follows: MIC against streptococci clinical isolates (Table 3). Format: cell-based. The following applies: Streptococcus pyogenes.

What is called MIC50 is an inhibitory concentration at the 50% level, which refers to growth in some studies and to a panel of isolates in others. The MIC90 is the lowest concentration that inhibits either 90% of growth or 90% of the strains tested, depending on the study. For orientation: Kd means the constant that tells how readily two partners part at equilibrium. By IC50 is commonly meant the concentration needed to halve the response being measured.

`CC[C@H]1OC(=O)[C@@](C)(F)C(=O)[C@H](C)[C@@H](O[C@@H]2O[C@H](C)C[C@H](N(C)C)[C@H]2O)[C@](C)(OC)C[C@@H](C)C(=O)[C@H](C)[C@H]2N(CCCCn3cc(-c4cccc(N)c4)nn3)C(=O)O[C@]12C` [CEM-101]: the MIC50 in assay [1] (read-out: MIC50) was 0.03 µg/mL (≈ 0.0355 µM); in assay [3] (read-out: MIC50), 0.03 µg/mL (≈ 0.0355 µM); in assay [5], 0.125 µg/mL (≈ 0.148 µM). For the same compound, the MIC90 turned out to be 0.03 µg/mL (≈ 0.0355 µM) in assay [1] (read-out: MIC90); 0.03 µg/mL (≈ 0.0355 µM) in assay [3] (read-out: MIC90); 0.25 µg/mL (≈ 0.296 µM) in assay [5] (S. pyogenes Tel^R, Mac^R, 9 strains (8 ermB, 1 ermA, constitutive), read-out: MIC90). Moreover, the Kd came to 62 ± 3 nM with E. coli ribosome (E. coli ribosome, resulting from competition IC50) and 12 ± 1 nM at S. aureus ribosome (S. aureus ribosome, resulting from competition IC50). In addition, the IC50 in the assay on E. coli ribosome (competition with 100 nM [14C]erythromycin, 100 nM E. coli ribosomes, read-out: IC50 of displacement of erythromycin) was 155 ± 8 nM; at S. aureus ribosome (competition with 100 nM [14C]erythromycin, 100 nM S. aureus ribosomes, read-out: IC50 of displacement of erythromycin), 117 ± 3 nM. For the same compound, the “Effect on the synthesis of luciferase” value in assay [2] is “no effect”. For the same compound, the “Protection of A2059 from DMS modification (binding to Erm-modified ribosome)” value in assay [4] is recorded as “protection of A2059 from DMS modification”. Further, the “Protection of G2505 from kethoxal modification” value in assay [4] is “partially protected”. In assay [4], the “Protection of U2609 from modification with CMCT” value is recorded as “fully protected”.
